Data published in ChEMBL document CHEMBL4507329, “Data for DCP probe BTZO-1” (2021).

Experiments:
[1] = tested on: Epidermal growth factor receptor (Homo sapiens), P00533 [L861Q]; details: Compound concentration 1000.0 nM
[2] = tested on: Proto-oncogene tyrosine-protein kinase receptor Ret (Homo sapiens), P07949 [V804L]; details: Compound concentration 1000.0 nM
[3] = tested on: Phosphatidylinositol 4,5-bisphosphate 3-kinase catalytic subunit alpha isoform (Homo sapiens), P42336 [Q546K]; details: Compound concentration 1000.0 nM
[4] = biological target: Mitogen-activated protein kinase 9 (Homo sapiens) (UniProt P45984); details: Compound concentration 1000.0 nM
[5] = biological target: BMP-2-inducible protein kinase (Homo sapiens) (UniProt Q9NSY1); details: Compound concentration 1000.0 nM
[6] = biological target: Serine/threonine-protein kinase Nek3 (Homo sapiens) (UniProt P51956); details: Compound concentration 1000.0 nM
[7] = biological target: Serine/threonine-protein kinase 35 (Homo sapiens) (UniProt Q8TDR2); details: Compound concentration 1000.0 nM
[8] = biological target: Phosphatidylinositol 4,5-bisphosphate 3-kinase catalytic subunit delta isoform (Homo sapiens) (UniProt O00329); details: Compound concentration 1000.0 nM
[9] = biological target: Aurora kinase B (Homo sapiens) (UniProt Q96GD4); details: Compound concentration 1000.0 nM
[10] = biological target: Mitogen-activated protein kinase kinase kinase 14 (Homo sapiens) (UniProt Q99558); details: Compound concentration 1000.0 nM
[11] = biological target: D(2) dopamine receptor (Homo sapiens) (UniProt P14416); details: Compound concentration 10.0 uM
[12] = biological target: Ribosomal protein S6 kinase alpha-1 (Homo sapiens) (UniProt Q15418); details: Compound concentration 1000.0 nM
[13] = biological target: Serine/threonine-protein kinase NIM1 (Homo sapiens) (UniProt Q8IY84); details: Compound concentration 1000.0 nM
[14] = biological target: Cyclin-dependent kinase-like 3 (Homo sapiens) (UniProt Q8IVW4); details: Compound concentration 1000.0 nM
[15] = biological target: Bone morphogenetic protein receptor type-2 (Homo sapiens) (UniProt Q13873); details: Compound concentration 1000.0 nM
[16] = biological target: Activin receptor type-2B (Homo sapiens) (UniProt Q13705); details: Compound concentration 1000.0 nM
[17] = tested on: Receptor-type tyrosine-protein kinase FLT3 (Homo sapiens), P36888 [UNDEFINED MUTATION]; details: Compound concentration 1000.0 nM
[18] = biological target: Mitogen-activated protein kinase 15 (Homo sapiens) (UniProt Q8TD08); details: Compound concentration 1000.0 nM
[19] = biological target: Mitogen-activated protein kinase kinase kinase kinase 3 (Homo sapiens) (UniProt Q8IVH8); details: Compound concentration 1000.0 nM
[20] = biological target: Cyclin-dependent kinase 18 (Homo sapiens) (UniProt Q07002); details: Compound concentration 1000.0 nM
[21] = biological target: Serine/threonine-protein kinase Chk2 (Homo sapiens) (UniProt O96017); details: Compound concentration 1000.0 nM
[22] = biological target: Casein kinase I isoform delta (Homo sapiens) (UniProt P48730); details: Compound concentration 1000.0 nM
[23] = tested on: Mast/stem cell growth factor receptor Kit (Homo sapiens), P10721 [D816V]; details: Compound concentration 1000.0 nM
[24] = biological target: Serine/threonine-protein kinase PAK 4 (Homo sapiens) (UniProt O96013); details: Compound concentration 1000.0 nM
[25] = biological target: Calcium/calmodulin-dependent protein kinase type II subunit alpha (Homo sapiens) (UniProt Q9UQM7); details: Compound concentration 1000.0 nM
[26] = biological target: Serine/threonine-protein kinase 38-like (Homo sapiens) (UniProt Q9Y2H1); details: Compound concentration 1000.0 nM
[27] = biological target: Calcium/calmodulin-dependent protein kinase type IV (Homo sapiens) (UniProt Q16566); details: Compound concentration 1000.0 nM
[28] = biological target: 5-hydroxytryptamine receptor 1E (Homo sapiens) (UniProt P28566); details: Compound concentration 10.0 uM
[29] = biological target: Serine/threonine-protein kinase 24 (Homo sapiens) (UniProt Q9Y6E0); details: Compound concentration 1000.0 nM
[30] = biological target: Ephrin type-B receptor 6 (Homo sapiens) (UniProt O15197); details: Compound concentration 1000.0 nM
[31] = tested on: Epidermal growth factor receptor (Homo sapiens), P00533 [L858R]; details: Compound concentration 1000.0 nM
[32] = biological target: Serine/threonine-protein kinase Nek9 (Homo sapiens) (UniProt Q8TD19); details: Compound concentration 1000.0 nM
[33] = biological target: MAP kinase-activated protein kinase 2 (Homo sapiens) (UniProt P49137); details: Compound concentration 1000.0 nM
[34] = biological target: Cyclin-dependent kinase 11A (Homo sapiens) (UniProt Q9UQ88); details: Compound concentration 1000.0 nM
[35] = biological target: Receptor tyrosine-protein kinase erbB-3 (Homo sapiens) (UniProt P21860); details: Compound concentration 1000.0 nM
[36] = tested on: Epidermal growth factor receptor (Homo sapiens), P00533 [UNDEFINED MUTATION]; details: Compound concentration 1000.0 nM
[37] = biological target: Serine/threonine-protein kinase Nek10 (Homo sapiens) (UniProt Q6ZWH5); details: Compound concentration 1000.0 nM
[38] = biological target: Cyclin-dependent kinase-like 2 (Homo sapiens) (UniProt Q92772); details: Compound concentration 1000.0 nM
[39] = biological target: Testis-specific serine/threonine-protein kinase 1 (Homo sapiens) (UniProt Q9BXA7); details: Compound concentration 1000.0 nM
[40] = biological target: Death-associated protein kinase 1 (Homo sapiens) (UniProt P53355); details: Compound concentration 1000.0 nM
[41] = tested on: ALK tyrosine kinase receptor (Homo sapiens), Q9UM73 [C1156Y]; details: Compound concentration 1000.0 nM
[42] = biological target: Cyclin-dependent kinase 7 (Homo sapiens) (UniProt P50613); details: Compound concentration 1000.0 nM
[43] = biological target: Dual specificity tyrosine-phosphorylation-regulated kinase 1A (Homo sapiens) (UniProt Q13627); details: Compound concentration 1000.0 nM
[44] = biological target: Serine/threonine-protein kinase D3 (Homo sapiens) (UniProt O94806); details: Compound concentration 1000.0 nM
[45] = tested on: eIF-2-alpha kinase GCN2 (Homo sapiens), Q9P2K8 [S808G]; details: Compound concentration 1000.0 nM

Chain of 5-hydroxytryptamine receptor 1E (Homo sapiens) (P28566 whole entry): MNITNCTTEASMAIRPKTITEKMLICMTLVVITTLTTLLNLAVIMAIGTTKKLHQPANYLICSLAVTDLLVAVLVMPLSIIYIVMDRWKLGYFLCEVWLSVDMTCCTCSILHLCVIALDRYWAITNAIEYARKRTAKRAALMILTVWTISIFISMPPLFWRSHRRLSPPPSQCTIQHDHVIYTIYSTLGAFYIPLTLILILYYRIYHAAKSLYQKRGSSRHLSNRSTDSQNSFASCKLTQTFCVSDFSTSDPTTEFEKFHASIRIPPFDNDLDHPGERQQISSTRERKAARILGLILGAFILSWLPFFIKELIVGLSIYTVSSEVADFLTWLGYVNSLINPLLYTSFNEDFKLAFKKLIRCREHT
Chain of Serine/threonine-protein kinase Nek9 (Homo sapiens) (Q8TD19 whole entry): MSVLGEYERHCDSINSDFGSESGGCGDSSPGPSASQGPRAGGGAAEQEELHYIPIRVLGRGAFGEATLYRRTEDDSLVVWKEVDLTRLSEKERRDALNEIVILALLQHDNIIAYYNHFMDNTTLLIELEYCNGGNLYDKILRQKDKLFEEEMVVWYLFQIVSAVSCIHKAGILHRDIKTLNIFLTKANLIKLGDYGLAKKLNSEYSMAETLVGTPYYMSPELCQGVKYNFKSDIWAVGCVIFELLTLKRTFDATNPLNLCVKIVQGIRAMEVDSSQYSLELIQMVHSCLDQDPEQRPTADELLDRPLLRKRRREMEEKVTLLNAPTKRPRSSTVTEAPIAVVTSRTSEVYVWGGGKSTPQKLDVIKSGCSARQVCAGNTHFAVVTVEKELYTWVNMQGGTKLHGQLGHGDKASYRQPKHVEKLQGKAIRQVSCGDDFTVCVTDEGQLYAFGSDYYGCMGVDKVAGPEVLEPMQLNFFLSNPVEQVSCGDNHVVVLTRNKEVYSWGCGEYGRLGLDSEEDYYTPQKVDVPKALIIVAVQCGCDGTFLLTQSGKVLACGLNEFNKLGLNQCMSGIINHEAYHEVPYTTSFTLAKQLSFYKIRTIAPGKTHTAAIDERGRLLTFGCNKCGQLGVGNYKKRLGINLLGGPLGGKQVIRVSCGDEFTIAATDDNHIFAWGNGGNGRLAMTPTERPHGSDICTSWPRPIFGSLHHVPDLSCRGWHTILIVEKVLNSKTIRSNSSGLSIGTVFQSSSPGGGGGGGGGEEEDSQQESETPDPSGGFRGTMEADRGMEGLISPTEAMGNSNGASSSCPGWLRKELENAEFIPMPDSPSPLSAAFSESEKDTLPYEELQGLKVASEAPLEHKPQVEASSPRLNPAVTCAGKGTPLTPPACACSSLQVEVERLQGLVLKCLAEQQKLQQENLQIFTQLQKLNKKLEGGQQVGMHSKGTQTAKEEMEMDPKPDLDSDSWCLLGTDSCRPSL
Chain of Activin receptor type-2B (Homo sapiens) (Q13705 whole entry): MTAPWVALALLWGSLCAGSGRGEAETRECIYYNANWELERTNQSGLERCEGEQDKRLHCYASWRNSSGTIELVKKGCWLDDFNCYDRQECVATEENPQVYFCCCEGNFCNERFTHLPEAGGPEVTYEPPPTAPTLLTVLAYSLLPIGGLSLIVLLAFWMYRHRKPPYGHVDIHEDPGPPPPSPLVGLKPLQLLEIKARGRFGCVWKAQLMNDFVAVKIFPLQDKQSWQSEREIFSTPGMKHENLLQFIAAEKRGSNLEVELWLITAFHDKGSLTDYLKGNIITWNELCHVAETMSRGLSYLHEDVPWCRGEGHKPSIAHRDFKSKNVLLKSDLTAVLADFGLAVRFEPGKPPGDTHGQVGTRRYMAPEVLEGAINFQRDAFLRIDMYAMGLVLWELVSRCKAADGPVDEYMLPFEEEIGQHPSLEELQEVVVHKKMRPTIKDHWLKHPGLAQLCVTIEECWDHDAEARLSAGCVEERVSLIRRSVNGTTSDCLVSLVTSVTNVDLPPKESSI
Chain of Serine/threonine-protein kinase 24 (Homo sapiens) (Q9Y6E0 whole entry, looked up): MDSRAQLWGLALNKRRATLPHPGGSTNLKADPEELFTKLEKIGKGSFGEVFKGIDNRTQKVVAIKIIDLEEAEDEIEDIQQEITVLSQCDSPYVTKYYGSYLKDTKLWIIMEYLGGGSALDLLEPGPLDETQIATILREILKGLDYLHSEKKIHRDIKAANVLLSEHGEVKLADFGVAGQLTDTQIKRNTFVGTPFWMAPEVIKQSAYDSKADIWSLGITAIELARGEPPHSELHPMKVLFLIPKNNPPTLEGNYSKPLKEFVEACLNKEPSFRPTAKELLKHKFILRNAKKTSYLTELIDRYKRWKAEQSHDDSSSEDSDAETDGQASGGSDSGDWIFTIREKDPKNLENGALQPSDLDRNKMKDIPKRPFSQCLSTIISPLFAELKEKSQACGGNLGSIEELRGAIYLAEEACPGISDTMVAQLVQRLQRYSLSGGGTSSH
Chain of Cyclin-dependent kinase 11A (Homo sapiens) (Q9UQ88 whole entry): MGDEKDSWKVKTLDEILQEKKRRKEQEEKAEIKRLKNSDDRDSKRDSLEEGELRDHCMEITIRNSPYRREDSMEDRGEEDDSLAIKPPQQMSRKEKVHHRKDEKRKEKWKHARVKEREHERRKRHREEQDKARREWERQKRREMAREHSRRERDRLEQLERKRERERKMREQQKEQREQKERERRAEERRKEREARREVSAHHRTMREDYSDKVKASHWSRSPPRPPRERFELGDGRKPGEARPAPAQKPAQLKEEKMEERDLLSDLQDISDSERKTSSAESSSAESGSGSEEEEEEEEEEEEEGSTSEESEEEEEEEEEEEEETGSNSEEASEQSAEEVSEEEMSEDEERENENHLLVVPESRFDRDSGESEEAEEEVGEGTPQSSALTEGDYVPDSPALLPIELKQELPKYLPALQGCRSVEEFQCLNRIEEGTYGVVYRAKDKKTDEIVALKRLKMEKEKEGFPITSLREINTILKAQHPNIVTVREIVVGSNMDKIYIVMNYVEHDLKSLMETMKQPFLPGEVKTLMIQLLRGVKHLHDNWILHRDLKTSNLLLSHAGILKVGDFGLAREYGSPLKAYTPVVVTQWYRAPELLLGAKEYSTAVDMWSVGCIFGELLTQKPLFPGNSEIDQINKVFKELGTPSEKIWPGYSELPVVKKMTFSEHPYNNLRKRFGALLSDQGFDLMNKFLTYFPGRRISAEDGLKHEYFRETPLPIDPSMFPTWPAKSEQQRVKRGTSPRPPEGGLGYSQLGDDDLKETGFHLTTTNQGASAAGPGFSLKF
Chain of Cyclin-dependent kinase 7 (Homo sapiens) (P50613 whole entry): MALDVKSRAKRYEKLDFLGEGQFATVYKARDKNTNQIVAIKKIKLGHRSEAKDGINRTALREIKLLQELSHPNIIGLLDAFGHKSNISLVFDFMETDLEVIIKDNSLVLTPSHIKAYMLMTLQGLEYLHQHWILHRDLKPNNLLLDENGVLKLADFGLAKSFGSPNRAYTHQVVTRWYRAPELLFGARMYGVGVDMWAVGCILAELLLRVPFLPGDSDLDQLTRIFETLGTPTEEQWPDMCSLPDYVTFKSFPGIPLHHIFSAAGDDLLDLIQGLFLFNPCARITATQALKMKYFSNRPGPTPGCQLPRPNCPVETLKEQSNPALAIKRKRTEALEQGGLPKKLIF
Chain of Mitogen-activated protein kinase 9 (Homo sapiens) (P45984 whole entry, looked up): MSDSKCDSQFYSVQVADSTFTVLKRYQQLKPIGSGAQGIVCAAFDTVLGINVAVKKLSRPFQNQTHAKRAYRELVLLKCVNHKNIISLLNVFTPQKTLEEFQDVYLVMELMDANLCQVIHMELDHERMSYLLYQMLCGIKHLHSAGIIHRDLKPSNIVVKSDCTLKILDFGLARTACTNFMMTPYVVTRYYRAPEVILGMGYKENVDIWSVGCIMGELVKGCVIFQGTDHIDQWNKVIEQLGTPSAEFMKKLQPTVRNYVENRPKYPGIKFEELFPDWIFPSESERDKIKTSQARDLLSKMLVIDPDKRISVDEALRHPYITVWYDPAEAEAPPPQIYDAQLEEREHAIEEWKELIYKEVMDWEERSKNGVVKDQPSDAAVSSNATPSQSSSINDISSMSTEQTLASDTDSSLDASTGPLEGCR
Chain of Phosphatidylinositol 4,5-bisphosphate 3-kinase catalytic subunit alpha isoform (Homo sapiens), P42336 [Q546K] (P42336 whole entry Q546K, canonical isoform): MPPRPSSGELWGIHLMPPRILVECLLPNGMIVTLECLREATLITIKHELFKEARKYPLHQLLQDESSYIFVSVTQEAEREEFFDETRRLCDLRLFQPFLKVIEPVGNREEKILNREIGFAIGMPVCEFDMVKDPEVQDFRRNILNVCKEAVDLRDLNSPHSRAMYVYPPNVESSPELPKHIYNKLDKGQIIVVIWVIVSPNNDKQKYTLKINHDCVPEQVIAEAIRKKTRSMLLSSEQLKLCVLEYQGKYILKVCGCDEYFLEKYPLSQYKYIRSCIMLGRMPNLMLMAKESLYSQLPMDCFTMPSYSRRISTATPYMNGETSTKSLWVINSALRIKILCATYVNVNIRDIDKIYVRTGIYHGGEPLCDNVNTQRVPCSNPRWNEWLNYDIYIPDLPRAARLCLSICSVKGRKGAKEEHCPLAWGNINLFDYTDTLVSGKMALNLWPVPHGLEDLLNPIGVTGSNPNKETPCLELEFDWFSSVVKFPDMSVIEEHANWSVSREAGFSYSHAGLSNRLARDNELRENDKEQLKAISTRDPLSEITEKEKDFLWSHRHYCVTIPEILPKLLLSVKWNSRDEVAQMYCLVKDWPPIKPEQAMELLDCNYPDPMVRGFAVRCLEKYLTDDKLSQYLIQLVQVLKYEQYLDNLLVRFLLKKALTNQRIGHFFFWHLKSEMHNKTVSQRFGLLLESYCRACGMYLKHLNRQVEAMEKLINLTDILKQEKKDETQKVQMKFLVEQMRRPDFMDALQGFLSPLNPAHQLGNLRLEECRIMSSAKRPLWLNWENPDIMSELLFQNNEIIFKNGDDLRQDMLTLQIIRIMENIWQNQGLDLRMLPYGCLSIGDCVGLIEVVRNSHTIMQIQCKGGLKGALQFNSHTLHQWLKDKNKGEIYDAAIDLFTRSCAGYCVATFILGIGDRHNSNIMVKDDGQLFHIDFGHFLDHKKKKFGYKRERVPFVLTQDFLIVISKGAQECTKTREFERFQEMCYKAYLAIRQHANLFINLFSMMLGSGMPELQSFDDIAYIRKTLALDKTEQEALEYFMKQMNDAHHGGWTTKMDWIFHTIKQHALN

**Q.** Which residual activity [1] does the source give for `O=C1NC(c2ccccn2)Sc2ccccc21` (stereo not given) [BTZO-4] here?
**A.** 77%

**Q.** And the residual activity [2]?
**A.** 69%

**Q.** What about the residual activity [3] of the same compound?
**A.** 100%

**Q.** And the residual activity [4]?
**A.** 100%

**Q.** What about the residual activity [5] of the same compound?
**A.** 88%

**Q.** And the residual activity [6]?
**A.** 80%

**Q.** What about the residual activity [7] of the same compound?
**A.** 99%

**Q.** And the residual activity [8]?
**A.** 51%

**Q.** What about the residual activity [9] of the same compound?
**A.** 100%

**Q.** What about the residual activity [10] of the same compound?
**A.** 92%

**Q.** What about the inhibition [11] of the same compound?
**A.** -3.91%

**Q.** What about the residual activity [12] of the same compound?
**A.** 100%

**Q.** And the residual activity [13]?
**A.** 100%

**Q.** And the residual activity [14]?
**A.** 88%

**Q.** What about the residual activity [15] of the same compound?
**A.** 80%

**Q.** What about the residual activity [16] of the same compound?
**A.** 100%

**Q.** What about the residual activity [17] of the same compound?
**A.** 100%

**Q.** What about the residual activity [18] of the same compound?
**A.** 100%

**Q.** What about the residual activity [19] of the same compound?
**A.** 100%

**Q.** What about the residual activity [20] of the same compound?
**A.** 93%

**Q.** What about the residual activity [21] of the same compound?
**A.** 100%

**Q.** What about the residual activity [22] of the same compound?
**A.** 74%

**Q.** What about the residual activity [23] of the same compound?
**A.** 100%

**Q.** And the residual activity [24]?
**A.** 84%

**Q.** And the residual activity [25]?
**A.** 100%

**Q.** And the residual activity [26]?
**A.** 58%

**Q.** And the residual activity [27]?
**A.** 72%

**Q.** And the inhibition [28]?
**A.** -0.383%

**Q.** And the residual activity [29]?
**A.** 94%

**Q.** And the residual activity [30]?
**A.** 78%

**Q.** What about the residual activity [31] of the same compound?
**A.** 86%

**Q.** What about the residual activity [32] of the same compound?
**A.** 75%

**Q.** And the residual activity [33]?
**A.** 100%

**Q.** What about the residual activity [34] of the same compound?
**A.** 100%

**Q.** And the residual activity [35]?
**A.** 88%

**Q.** What about the residual activity [36] of the same compound?
**A.** 100%

**Q.** And the residual activity [37]?
**A.** 100%

**Q.** And the residual activity [38]?
**A.** 76%

**Q.** What about the residual activity [39] of the same compound?
**A.** 66%

**Q.** And the residual activity [40]?
**A.** 100%

**Q.** What about the residual activity [41] of the same compound?
**A.** 84%

**Q.** And the residual activity [42]?
**A.** 77%

**Q.** What about the residual activity [43] of the same compound?
**A.** 100%

**Q.** What about the residual activity [44] of the same compound?
**A.** 100%

**Q.** What about the residual activity [45] of the same compound?
**A.** 42%

**Q.** `O=c1nc(-c2ccccn2)sc2ccccc12` [BTZO-1] was tested. Which residual activity [1] did it give?
**A.** 68%

**Q.** And the residual activity [2]?
**A.** 70%

**Q.** What about the residual activity [3] of the same compound?
**A.** 100%

**Q.** What about the residual activity [4] of the same compound?
**A.** 100%

**Q.** And the residual activity [5]?
**A.** 86%

**Q.** And the residual activity [6]?
**A.** 72%

**Q.** And the residual activity [7]?
**A.** 79%

**Q.** What about the residual activity [8] of the same compound?
**A.** 54%

**Q.** And the residual activity [9]?
**A.** 82%

**Q.** And the residual activity [10]?
**A.** 100%

**Q.** And the inhibition [11]?
**A.** 22.9%

**Q.** And the residual activity [12]?
**A.** 100%

**Q.** What about the residual activity [13] of the same compound?
**A.** 100%

**Q.** What about the residual activity [14] of the same compound?
**A.** 88%

**Q.** What about the residual activity [15] of the same compound?
**A.** 100%

**Q.** And the residual activity [16]?
**A.** 100%

**Q.** And the residual activity [17]?
**A.** 100%

**Q.** And the residual activity [18]?
**A.** 100%

**Q.** What about the residual activity [19] of the same compound?
**A.** 90%

**Q.** And the residual activity [20]?
**A.** 94%

**Q.** And the residual activity [21]?
**A.** 100%

**Q.** And the residual activity [22]?
**A.** 81%

**Q.** What about the residual activity [23] of the same compound?
**A.** 100%

**Q.** And the residual activity [24]?
**A.** 86%

**Q.** What about the residual activity [25] of the same compound?
**A.** 100%

**Q.** What about the residual activity [26] of the same compound?
**A.** 66%

**Q.** And the residual activity [27]?
**A.** 97%

**Q.** What about the inhibition [28] of the same compound?
**A.** -1.13%

**Q.** And the residual activity [29]?
**A.** 100%

**Q.** What about the residual activity [30] of the same compound?
**A.** 61%

**Q.** And the residual activity [31]?
**A.** 81%

**Q.** What about the residual activity [32] of the same compound?
**A.** 96%

**Q.** What about the residual activity [33] of the same compound?
**A.** 100%

**Q.** And the residual activity [34]?
**A.** 94%

**Q.** And the residual activity [35]?
**A.** 83%

**Q.** And the residual activity [36]?
**A.** 100%

**Q.** What about the residual activity [37] of the same compound?
**A.** 100%

**Q.** What about the residual activity [38] of the same compound?
**A.** 76%

**Q.** And the residual activity [39]?
**A.** 100%

**Q.** What about the residual activity [40] of the same compound?
**A.** 100%

**Q.** What about the residual activity [41] of the same compound?
**A.** 100%

**Q.** What about the residual activity [42] of the same compound?
**A.** 69%

**Q.** What about the residual activity [43] of the same compound?
**A.** 91%

**Q.** What about the residual activity [44] of the same compound?
**A.** 81%

**Q.** And the residual activity [45]?
**A.** 47%
